Results published in PMC8071193, “Dual-Target Compounds against Type 2 Diabetes Mellitus: Proof of Concept for Sodium Dependent Glucose Transporter (SGLT) and Glycogen Phosphorylase (GP) Inhibitors” (Pharmaceuticals, 2021).

target: T1, SGLT2 (Homo sapiens, UniProt P31639); assay: SGLT2 inhibition, 2-NBDG glucose uptake in SGLT2-overexpressing TSA201 cells; type: cell-based; conditions: not given
T1 construct: host or cells: TSA201 (Human Embryonal Kidney) cells, lentiviral transduction, puromycin selection
T1 sequence (P31639 1-672): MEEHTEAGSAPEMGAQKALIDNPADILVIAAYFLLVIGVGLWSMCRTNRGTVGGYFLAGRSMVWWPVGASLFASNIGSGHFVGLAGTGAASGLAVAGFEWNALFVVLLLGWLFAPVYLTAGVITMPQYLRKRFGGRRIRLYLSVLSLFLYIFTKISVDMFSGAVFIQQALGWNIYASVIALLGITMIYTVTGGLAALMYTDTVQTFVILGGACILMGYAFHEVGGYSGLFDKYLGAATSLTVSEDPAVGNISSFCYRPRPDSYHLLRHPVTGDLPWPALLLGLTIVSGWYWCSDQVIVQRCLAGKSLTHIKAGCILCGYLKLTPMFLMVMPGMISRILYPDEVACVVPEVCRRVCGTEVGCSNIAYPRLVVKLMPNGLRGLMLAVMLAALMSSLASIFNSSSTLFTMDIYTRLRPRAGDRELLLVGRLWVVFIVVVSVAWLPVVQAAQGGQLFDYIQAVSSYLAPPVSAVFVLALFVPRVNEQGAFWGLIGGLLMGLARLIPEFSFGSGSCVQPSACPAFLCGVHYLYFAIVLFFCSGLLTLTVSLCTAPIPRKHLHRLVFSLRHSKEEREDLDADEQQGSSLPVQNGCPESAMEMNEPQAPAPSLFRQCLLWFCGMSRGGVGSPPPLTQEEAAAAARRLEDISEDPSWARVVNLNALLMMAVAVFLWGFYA

IC50 | Structure (SMILES)
2.44 ± 0.85 µM | OC[C@H]1O[C@@H](c2nc(Cc3ccccc3)n(-c3ccccc3)n2)[C@H](O)[C@@H](O)[C@@H]1O [19c]
23.2 ± 1.86 µM | OC[C@H]1O[C@@H](n2cc(Cc3ccccc3)nn2)[C@H](O)[C@@H](O)[C@@H]1O [compound 20]

same assay, conditions: TSA201 cells, up to 1000 µM

SGLT2 inhibition (in words) | Structure (SMILES)
complete loss of the inhibition | COc1ccc(Cc2nc([C@@H]3O[C@H](CO)[C@@H](O)[C@H](O)[C@H]3O)no2)cc1 [10b, 3-(β-D-Glucopyranosyl)-5-(4-methoxybenzyl)-1,2,4-oxadiazole]
complete loss of the inhibition | OC[C@H]1O[C@@H](c2noc(Cc3ccc(Cl)cc3)n2)[C@H](O)[C@@H](O)[C@@H]1O [10c, 5-(4-Chlorobenzyl)-3-(β-D-glucopyranosyl)-1,2,4-oxadiazole]
complete loss of the inhibition | COc1ccc(Cc2nnc([C@@H]3O[C@H](CO)[C@@H](O)[C@H](O)[C@H]3O)o2)cc1 [13b, 2-(β-D-Glucopyranosyl)-5-(4-methoxybenzyl)-1,3,4-oxadiazole]
complete loss of the inhibition | OC[C@H]1O[C@@H](c2nnc(Cc3ccc(Cl)cc3)o2)[C@H](O)[C@@H](O)[C@@H]1O [13c, 5-(4-Chlorobenzyl)-2-(β-D-glucopyranosyl)-1,3,4-oxadiazole]

same assay, conditions: Table 2; TSA-201 cells; NI: no inhibition at 1000 µM; compounds 1-2 used as controls for in-house assay

IC50 | Structure (SMILES)
> 1000 µM | COc1ccc(Cc2nc([C@@H]3O[C@H](CO)[C@@H](O)[C@H](O)[C@H]3O)no2)cc1 [10b, 3-(β-D-Glucopyranosyl)-5-(4-methoxybenzyl)-1,2,4-oxadiazole]
> 1000 µM | OC[C@H]1O[C@@H](c2noc(Cc3ccc(Cl)cc3)n2)[C@H](O)[C@@H](O)[C@@H]1O [10c, 5-(4-Chlorobenzyl)-3-(β-D-glucopyranosyl)-1,2,4-oxadiazole]
> 1000 µM | COc1ccc(Cc2nnc([C@@H]3O[C@H](CO)[C@@H](O)[C@H](O)[C@H]3O)o2)cc1 [13b, 2-(β-D-Glucopyranosyl)-5-(4-methoxybenzyl)-1,3,4-oxadiazole]
> 1000 µM | OC[C@H]1O[C@@H](c2nnc(Cc3ccc(Cl)cc3)o2)[C@H](O)[C@@H](O)[C@@H]1O [13c, 5-(4-Chlorobenzyl)-2-(β-D-glucopyranosyl)-1,3,4-oxadiazole]

target: T2, SGLT1 (Homo sapiens, UniProt P13866); assay: SGLT1 inhibition, 2-NBDG glucose uptake in SGLT1-overexpressing TSA201 cells; type: cell-based; conditions: not given
T2 construct: host or cells: TSA201 (Human Embryonal Kidney) cells, lentiviral transduction, puromycin selection
T2 sequence (P13866 1-664): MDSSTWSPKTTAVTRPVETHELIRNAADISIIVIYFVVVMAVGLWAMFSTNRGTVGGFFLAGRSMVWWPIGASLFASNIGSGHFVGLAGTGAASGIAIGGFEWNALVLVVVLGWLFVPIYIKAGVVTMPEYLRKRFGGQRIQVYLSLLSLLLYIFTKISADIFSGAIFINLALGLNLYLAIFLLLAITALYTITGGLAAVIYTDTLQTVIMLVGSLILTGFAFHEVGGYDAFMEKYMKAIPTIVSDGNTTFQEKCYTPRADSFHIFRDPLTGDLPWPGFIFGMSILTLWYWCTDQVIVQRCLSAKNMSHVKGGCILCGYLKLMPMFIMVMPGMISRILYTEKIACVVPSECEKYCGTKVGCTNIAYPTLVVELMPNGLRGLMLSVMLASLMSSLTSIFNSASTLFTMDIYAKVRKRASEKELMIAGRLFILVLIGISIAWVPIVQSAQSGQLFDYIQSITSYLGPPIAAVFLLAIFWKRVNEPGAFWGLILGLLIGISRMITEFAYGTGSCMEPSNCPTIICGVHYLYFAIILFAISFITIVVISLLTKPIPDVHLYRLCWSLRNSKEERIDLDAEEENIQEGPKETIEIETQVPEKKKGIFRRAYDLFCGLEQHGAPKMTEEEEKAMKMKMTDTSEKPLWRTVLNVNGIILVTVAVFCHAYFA

IC50 | Structure (SMILES)
35.5 ± 9.56 µM | OC[C@H]1O[C@@H](c2nc(Cc3ccccc3)n(-c3ccccc3)n2)[C@H](O)[C@@H](O)[C@@H]1O [19c]
101 ± 23.5 µM | OC[C@H]1O[C@@H](n2cc(Cc3ccccc3)nn2)[C@H](O)[C@@H](O)[C@@H]1O [compound 20]

same assay, conditions: Table 2; TSA-201 cells; NI: no inhibition at 1000 µM; compounds 1-2 used as controls for in-house assay

IC50 | Structure (SMILES)
> 1000 µM | COc1ccc(Cc2nc([C@@H]3O[C@H](CO)[C@@H](O)[C@H](O)[C@H]3O)no2)cc1 [10b, 3-(β-D-Glucopyranosyl)-5-(4-methoxybenzyl)-1,2,4-oxadiazole]
> 1000 µM | OC[C@H]1O[C@@H](c2noc(Cc3ccc(Cl)cc3)n2)[C@H](O)[C@@H](O)[C@@H]1O [10c, 5-(4-Chlorobenzyl)-3-(β-D-glucopyranosyl)-1,2,4-oxadiazole]
> 1000 µM | COc1ccc(Cc2nnc([C@@H]3O[C@H](CO)[C@@H](O)[C@H](O)[C@H]3O)o2)cc1 [13b, 2-(β-D-Glucopyranosyl)-5-(4-methoxybenzyl)-1,3,4-oxadiazole]
> 1000 µM | OC[C@H]1O[C@@H](c2nnc(Cc3ccc(Cl)cc3)o2)[C@H](O)[C@@H](O)[C@@H]1O [13c, 5-(4-Chlorobenzyl)-2-(β-D-glucopyranosyl)-1,3,4-oxadiazole]

target: T3, rabbit muscle glycogen phosphorylase b (rmGPb) (Oryctolagus cuniculus, UniProt P00489); assay: Glycogen phosphorylase b enzyme kinetic inhibition assay (direction of glycogen synthesis); type: biochemical; conditions: Table 2; NI: no inhibition at 625 µM
T3 construct: Glycogen phosphorylase b was isolated from rabbit skeletal muscle; from tissue; host or cells: rabbit skeletal muscle
T3 sequence (P00489 1-843): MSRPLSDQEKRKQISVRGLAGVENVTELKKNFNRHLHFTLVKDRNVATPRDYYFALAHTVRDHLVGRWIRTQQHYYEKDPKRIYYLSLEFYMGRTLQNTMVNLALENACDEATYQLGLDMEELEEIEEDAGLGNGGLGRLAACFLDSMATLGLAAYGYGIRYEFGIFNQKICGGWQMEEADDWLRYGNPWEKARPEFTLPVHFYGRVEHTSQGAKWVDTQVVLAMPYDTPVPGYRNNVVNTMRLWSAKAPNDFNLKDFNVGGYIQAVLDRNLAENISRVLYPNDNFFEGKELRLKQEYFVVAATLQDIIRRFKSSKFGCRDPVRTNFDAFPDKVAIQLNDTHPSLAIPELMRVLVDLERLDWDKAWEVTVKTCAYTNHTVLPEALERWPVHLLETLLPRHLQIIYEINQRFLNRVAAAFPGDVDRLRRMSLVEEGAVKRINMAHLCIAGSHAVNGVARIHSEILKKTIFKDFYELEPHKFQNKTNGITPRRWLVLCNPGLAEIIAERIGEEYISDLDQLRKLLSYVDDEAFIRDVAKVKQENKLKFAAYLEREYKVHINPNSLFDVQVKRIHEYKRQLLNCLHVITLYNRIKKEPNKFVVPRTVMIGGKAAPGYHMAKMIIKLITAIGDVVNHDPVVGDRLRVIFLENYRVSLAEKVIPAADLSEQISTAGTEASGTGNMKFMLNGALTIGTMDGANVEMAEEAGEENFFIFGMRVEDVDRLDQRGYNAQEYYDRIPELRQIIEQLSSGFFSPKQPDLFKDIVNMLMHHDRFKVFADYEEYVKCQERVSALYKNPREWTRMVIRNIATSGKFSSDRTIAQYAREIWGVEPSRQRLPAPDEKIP
Text: The 2-NBDG (2-deoxy-2-[(7-nitro-2,1,3-benzoxadiazol-4-yl)amino]-D-glucose, cat. 11046) was purchased from Cayman Chemical Company (Ann Arbor, MI, USA). Lentivirus for SLC5A1 and SLC5A2 (NM_000343 for SGLT1, and NM-003041 for SGLT2) were obtained from Origene (Rockville, MD, USA). These expression vectors contain a puromycin resistance gene. […] CyQUANT^TM Cell Proliferation Assay Kit (2036547) was from Invitrogen (Carlsbad, CA, USA). Glycogen phosphorylase b was isolated from rabbit skeletal muscle according to the method of Fischer and Krebs.
Enzyme activity in the direction of glycogen synthesis was assayed. Kinetic data were collected using the muscle phosphorylase b (dephosphorylated, GPb) isoform. […] Enzymatic activities were presented in the form of a double-reciprocal plot (Lineweaver-Burk). The plots were analysed by a non-linear data analysis program. The inhibitor constants (Ki) were determined by secondary plots, replotting the slopes from the Lineweaver-Burk plot against the inhibitor concentrations. The means of standard errors for all calculated kinetic parameters averaged to less than 10% [78, 79].

IC50 | Structure (SMILES)
> 625 µM | COc1ccc(Cc2nc([C@@H]3O[C@H](CO)[C@@H](O)[C@H](O)[C@H]3O)no2)cc1 [10b, 3-(β-D-Glucopyranosyl)-5-(4-methoxybenzyl)-1,2,4-oxadiazole]
> 625 µM | OC[C@H]1O[C@@H](c2noc(Cc3ccc(Cl)cc3)n2)[C@H](O)[C@@H](O)[C@@H]1O [10c, 5-(4-Chlorobenzyl)-3-(β-D-glucopyranosyl)-1,2,4-oxadiazole]
> 625 µM | COc1ccc(Cc2nnc([C@@H]3O[C@H](CO)[C@@H](O)[C@H](O)[C@H]3O)o2)cc1 [13b, 2-(β-D-Glucopyranosyl)-5-(4-methoxybenzyl)-1,3,4-oxadiazole]
> 625 µM | OC[C@H]1O[C@@H](c2nnc(Cc3ccc(Cl)cc3)o2)[C@H](O)[C@@H](O)[C@@H]1O [13c, 5-(4-Chlorobenzyl)-2-(β-D-glucopyranosyl)-1,3,4-oxadiazole]
> 625 µM | OC[C@H]1O[C@@H](c2nc(Cc3ccccc3)n(-c3ccccc3)n2)[C@H](O)[C@@H](O)[C@@H]1O [19c]
